This note sets out measurements from ChEMBL document CHEMBL1151820, “Antagonists of the P2X(7) receptor. From lead identification to drug development” (J Med Chem, 2009).

The target of assay [1] is T1, P2X purinoceptor 7 (Homo sapiens, UniProt Q99572).
T1 sequence (Q99572 whole entry): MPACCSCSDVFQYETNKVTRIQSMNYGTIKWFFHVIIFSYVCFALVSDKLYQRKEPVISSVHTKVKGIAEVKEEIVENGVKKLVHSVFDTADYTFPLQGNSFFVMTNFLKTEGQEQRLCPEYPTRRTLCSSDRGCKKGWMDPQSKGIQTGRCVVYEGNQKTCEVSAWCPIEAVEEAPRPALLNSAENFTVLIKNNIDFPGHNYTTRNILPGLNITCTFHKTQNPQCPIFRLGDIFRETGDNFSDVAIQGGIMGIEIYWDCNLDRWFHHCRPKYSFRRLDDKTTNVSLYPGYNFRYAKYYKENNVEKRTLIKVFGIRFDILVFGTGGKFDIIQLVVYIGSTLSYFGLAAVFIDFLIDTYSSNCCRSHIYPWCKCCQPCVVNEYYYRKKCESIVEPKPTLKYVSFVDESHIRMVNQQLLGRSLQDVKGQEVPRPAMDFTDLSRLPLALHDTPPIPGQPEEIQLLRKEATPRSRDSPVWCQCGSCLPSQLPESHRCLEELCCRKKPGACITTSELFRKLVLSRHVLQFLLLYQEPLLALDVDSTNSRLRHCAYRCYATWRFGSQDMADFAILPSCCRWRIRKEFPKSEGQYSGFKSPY
Nature of the assay: Antagonist activity at human P2X7 receptor expressed in human U373 cells assessed as inhibition of BzATP-induced Yo-Pro uptake. It is filed as functional, cell-based, U-373MG ATCC.

For assay [2], the target named is T1, P2X purinoceptor 7. Nature of the assay: Antagonist activity at human P2X7 receptor expressed in HEK293 cells assessed as inhibition of BzATP-induced calcium influx. It is filed as functional, cell-based.
In assay [3] the target is T2, P2X purinoceptor 7 (Homo sapiens) (UniProt Q99572).
T2 sequence (whole entry): T1 sequence (Q99572 whole entry)
The settings on record: HEK293, at 3 µM.

The target in assay [4] is T1, P2X purinoceptor 7. The experiment in a line: Antagonist activity at P2X7 receptor in human THP1 cells assessed as inhibition of BzATP-induced ethidium uptake. It is filed as functional, cell-based, THP-1. The settings on record: for pIC50: thp-1.

For the molecule `C[C@@]1(c2cccc(F)c2)N=C(NCc2cccc(F)c2)N[C@@H]1c1cccc(F)c1`, the IC50 (commonly the midpoint of a concentration-inhibition curve) on P2X purinoceptor 7 [1] is 39.8 nM.

Regarding `O=C(CNS(=O)(=O)c1cccc2cnccc12)N1CCN(Cc2ccccc2)CC1`, at P2X purinoceptor 7 [2], the IC50 is 31.6 nM.

As to `O=C(CNS(=O)(=O)c1cccc2cnccc12)N1CCN(c2ccc([N+](=O)[O-])cc2)CC1`, the IC50 on P2X purinoceptor 7 [2] was 20 nM.

On to `CC(C)(C)OC(=O)N1CCN(C(=O)[C@H](Cc2ccc(OC(=O)c3ccccc3)cc2)NC(=O)OCc2ccccc2)CC1`, for which the inhibition (usually the drop in the measured response relative to a control, in per cent) in assay [3] worked out at 47%.

`CC(C)(C)OC(=O)N1CCN(C(=O)[C@H](Cc2ccc(OS(=O)(=O)c3cccc4cccnc34)cc2)NS(=O)(=O)c2cccc3cccnc23)CC1` had an inhibition in assay [3] of 61%.

Take `Cc1cccc([C@H]2NC(NCc3cccc(F)c3)=N[C@H]2c2cccc(C)c2)c1`: the IC50 on P2X purinoceptor 7 [1] was 126 nM.

With `CC(C)(C)OC(=O)N1CCN(C(=O)[C@H](Cc2ccc(OS(=O)(=O)c3cccc4cccnc34)cc2)NC(=O)c2ccccc2)CC1`, in assay [3], the inhibition was 13%.

For `Fc1cccc(CC2=N[C@H](c3ccccc3)[C@H](c3ccccc3)N2)c1`, the IC50 on P2X purinoceptor 7 [1] is 79.4 nM.

With `c1ccc(CCC2=N[C@H](c3ccccc3)[C@H](c3ccccc3)N2)cc1`, the IC50 at P2X purinoceptor 7 [1] is 79.4 nM.

As for `CN([C@@H](Cc1ccc(OS(=O)(=O)c2cccc3cnccc23)cc1)C(=O)N1CCN(c2ccc(F)cc2)CC1)S(=O)(=O)c1cccc2cnccc12`, at P2X purinoceptor 7 [2], the half-maximal inhibitory concentration (IC50) is 1.26 nM.

Regarding `O=C(N[C@@H](Cc1ccc(OS(=O)(=O)c2ccccc2)cc1)C(=O)N1CCN(C(=O)OCc2ccccc2)CC1)OCc1ccccc1`, in assay [3], the inhibition was determined as 48%.

As for `COc1ccc(CCC2=N[C@H](c3ccccc3)[C@H](c3ccccc3)N2)cc1`, the IC50 on P2X purinoceptor 7 [1] is above 3160 nM.

Regarding `CCOC(=O)Oc1ccc(C[C@H](NC(=O)OCc2ccccc2)C(=O)N2CCN(C(=O)OC(C)(C)C)CC2)cc1`, the inhibition in assay [3] was below 10%.

As to `CC(C)(C)OC(=O)N1CCN(C(=O)[C@H](Cc2ccc(OS(=O)(=O)c3cccc4cnccc34)cc2)NC(=O)OCc2ccccc2)CC1`, the inhibition in assay [3] amounted to 43%.

Regarding `c1ccc(C2=N[C@@H](c3ccccc3)[C@@H](c3ccccc3)N2)cc1`, the IC50 on P2X purinoceptor 7 [1] was 3980 nM.

Turning to `Fc1cccc(CNC2=N[C@@H](c3ccccc3Cl)[C@@H](c3ccccc3Cl)N2)c1`, the IC50 at P2X purinoceptor 7 [1] was 398 nM.

As for `CN([C@@H](Cc1ccc(OS(=O)(=O)c2cccc3cnccc23)cc1)C(=O)N1CCN(c2cccc(Cl)c2)CC1)S(=O)(=O)c1cccc2cnccc12`, the IC50 on P2X purinoceptor 7 [2] is 12.6 nM.

As to `CC(C)(C)OC(=O)N1CCN(C(=O)[C@H](Cc2ccc(OS(=O)(=O)c3cccc4cccnc34)cc2)NS(=O)(=O)c2cccc3cnccc23)CC1`, in assay [3], the inhibition was 37%.

`COc1ccc(S(=O)(=O)Oc2ccc(C[C@H](NC(=O)OCc3ccccc3)C(=O)N3CCN(C(=O)OC(C)(C)C)CC3)cc2)cc1`: the inhibition in assay [3] was 62%.

As for `CC(C)(C)OC(=O)N1CCN(C(=O)[C@H](Cc2ccc(O)cc2)NC(=O)OCc2ccccc2)CC1`, the inhibition in assay [3] was below 10%.

As for `CN([C@@H](Cc1ccc(OS(=O)(=O)c2cccc3cnccc23)cc1)C(=O)N1CCN(c2ccc(Cl)cc2)CC1)S(=O)(=O)c1cccc2cnccc12`, at P2X purinoceptor 7 [2], the IC50 is 100 nM.

For the molecule `Cc1ccccc1CCC1=N[C@H](c2ccccc2)[C@H](c2ccccc2)N1`, the IC50 on P2X purinoceptor 7 [1] was 63.1 nM.

On to `Clc1ccccc1CCC1=N[C@@H](c2ccccc2)[C@@H](c2ccccc2)N1`, for which the IC50 on P2X purinoceptor 7 [1] is 63.1 nM.

Regarding `Clc1cccc(CCC2=N[C@H](c3ccccc3)[C@H](c3ccccc3)N2)c1`, the half-maximal inhibitory concentration (IC50) on P2X purinoceptor 7 [1] was 126 nM.

`CCC(=O)Oc1ccc(C[C@H](NC(=O)OCc2ccccc2)C(=O)N2CCN(C(=O)OC(C)(C)C)CC2)cc1` gave an inhibition in assay [3] below 10%.

Molecule `CC(C)(C)OC(=O)N1CCN(C(=O)[C@H](Cc2ccc(OS(=O)(=O)c3cccc4cccnc34)cc2)NS(=O)(=O)c2ccccc2)CC1` yielded an inhibition in assay [3] below 10%.

For the molecule `O=C(CNS(=O)(=O)c1cccc2cnccc12)N1CCN(c2ccccc2F)CC1`, at P2X purinoceptor 7 [2], the 50% inhibitory concentration (IC50) is 12.6 nM.

For the molecule `Cc1ccccc1N1CCN(C(=O)[C@H](Cc2ccc(OS(=O)(=O)c3cccc4cnccc34)cc2)N(C)S(=O)(=O)c2cccc3cnccc23)CC1`, the 50% inhibitory concentration (IC50) on P2X purinoceptor 7 [2] was 15.8 nM.

Regarding `Clc1ccc(CCC2=N[C@H](c3ccccc3)[C@H](c3ccccc3)N2)cc1`, the half-maximal inhibitory concentration (IC50) on P2X purinoceptor 7 [1] was above 1000 nM.

As to `c1ccc([C@H]2N=C(C3Cc4ccccc4C3)N[C@H]2c2ccccc2)cc1`, the IC50 at P2X purinoceptor 7 [1] is 31.6 nM.

`Cc1ccc(S(=O)(=O)Oc2ccc(C[C@H](NC(=O)OCc3ccccc3)C(=O)N3CCN(C(=O)OC(C)(C)C)CC3)cc2)cc1` gave an inhibition in assay [3] of 71%.

Turning to `CC(C)(C)OC(=O)N1CCN(C(=O)[C@H](Cc2ccc(OS(=O)(=O)c3cccc4cccnc34)cc2)NC(=O)OCc2ccccc2)CC1`, the inhibition in assay [3] worked out at 53%.

On to `CC(CC1=N[C@H](c2ccccc2)[C@H](c2ccccc2)N1)c1ccccc1` (stereo partly drawn), for which, on P2X purinoceptor 7 [1], the IC50 was 31.6 nM.

For `CC(C)(C)OC(=O)N1CCN(C(=O)[C@H](Cc2ccc(OS(=O)(=O)c3ccccc3)cc2)NC(=O)OCc2ccccc2)CC1`, the inhibition in assay [3] was 59%.

As for `c1ccc(CCCC2=N[C@H](c3ccccc3)[C@H](c3ccccc3)N2)cc1`, the IC50 on P2X purinoceptor 7 [1] was 501 nM.

Consider `CN([C@@H](Cc1ccc(OS(=O)(=O)c2cccc3cnccc23)cc1)C(=O)N1CCN(Cc2ccccc2)CC1)S(=O)(=O)c1cccc2cnccc12`, for which the IC50 on P2X purinoceptor 7 [2] is 20 nM.

In assay [3], `O=C(N[C@@H](Cc1ccc(OS(=O)(=O)c2ccccc2)cc1)C(=O)N1CCN(C(=O)c2ccccc2)CC1)OCc1ccccc1` displayed an inhibition of 78%.

`CC(C)(C)OC(=O)N1CCN(C(=O)[C@H](Cc2ccc(OC(=O)OCc3ccccc3)cc2)NC(=O)OCc2ccccc2)CC1` displayed an inhibition in assay [3] below 10%.

As for `CN([C@@H](Cc1ccc(OS(=O)(=O)c2cccc3cnccc23)cc1)C(=O)N1CCN(CCc2ccccc2)CC1)S(=O)(=O)c1cccc2cnccc12`, at P2X purinoceptor 7 [2], the IC50 was 631 nM.

For `CC(C)(C)OC(=O)N1CCN(C(=O)[C@H](Cc2ccc(OS(=O)(=O)c3cccc4cccnc34)cc2)NS(C)(=O)=O)CC1`, in assay [3], the inhibition was below 10%.

As to `Fc1cccc(CNC2=N[C@@H](c3ccccc3)[C@@H](c3ccccc3)N2)c1`, the half-inhibitory concentration (IC50) on P2X purinoceptor 7 [1] is 100 nM.

Consider `CC(C)(C)OC(=O)N1CCN(C(=O)[C@@H](N)Cc2ccc(OS(=O)(=O)c3cccc4cccnc34)cc2)CC1`, for which the inhibition in assay [3] is below 10%.

In turn, `O=C(N[C@@H](Cc1ccc(OS(=O)(=O)c2ccccc2)cc1)C(=O)N1CCN(S(=O)(=O)c2ccccc2)CC1)OCc1ccccc1` showed an inhibition in assay [3] below 10%.

As for `Cc1ccccc1CC1=N[C@H](c2ccccc2)[C@H](c2ccccc2)N1`, the IC50 at P2X purinoceptor 7 [1] is 316 nM.

On to `Fc1ccccc1CC1=N[C@H](c2ccccc2)[C@H](c2ccccc2)N1`, for which, on P2X purinoceptor 7 [1], the half-inhibitory concentration (IC50) is 631 nM.

As to `COc1cccc(NC(=O)c2cccc(Cc3c(C)nn(CCO)c3-c3ccccc3)c2)c1`, on P2X purinoceptor 7 [2], the IC50 was at most 200 nM.

In the case of `O=C([C@H](Cc1ccc(OS(=O)(=O)c2cccc3cnccc23)cc1)NS(=O)(=O)c1cccc2cnccc12)N1CCN(c2ccc(F)cc2)CC1`, the IC50 on P2X purinoceptor 7 [2] is 6.31 nM.

Consider `CN([C@@H](Cc1ccc(OS(=O)(=O)c2cccc3cnccc23)cc1)C(=O)N1CCC(Cc2ccccc2)CC1)S(=O)(=O)c1cccc2cnccc12`, for which, on P2X purinoceptor 7 [2], the IC50 was 63.1 nM.

On to `CC(C)(C)OC(=O)N1CCN(C(=O)[C@H](Cc2ccc(OS(C)(=O)=O)cc2)NC(=O)OCc2ccccc2)CC1`, for which the inhibition in assay [3] is below 10%.

On to `CC(C)(CC1=N[C@H](c2ccccc2)[C@H](c2ccccc2)N1)c1ccccc1`, for which the concentration for half-maximal inhibition (IC50) at P2X purinoceptor 7 [1] was 10 nM.

Regarding `Clc1cccc(-c2nnnn2Cc2c(Cl)cccc2Cl)c1Cl`, on P2X purinoceptor 7 [4], the IC50 is 126 nM.

`c1ccc(CCCCC2=N[C@H](c3ccccc3)[C@H](c3ccccc3)N2)cc1`: the half-maximal inhibitory concentration (IC50) at P2X purinoceptor 7 [1] was 631 nM.

With `O=C(O)CNCCNc1ccc(Cl)c(C(=O)NCC23CC4CC(CC(C4)C2)C3)c1`, the pIC50 (as a rule, −log10 of the IC50, conventionally taken in molar units) on P2X purinoceptor 7 [4] was above 5.

For the molecule `Fc1ccc(CC2=N[C@H](c3ccccc3)[C@H](c3ccccc3)N2)cc1`, at P2X purinoceptor 7 [1], the 50% inhibitory concentration (IC50) was 79.4 nM.

In the case of `Fc1cccc(COC2=N[C@H](c3ccccc3)[C@H](c3ccccc3)N2)c1`, the IC50 at P2X purinoceptor 7 [1] was 200 nM.

On to `O=C(CNS(=O)(=O)c1cccc2cnccc12)N1CCN(c2ccc(F)cc2)CC1`, for which the concentration for half-maximal inhibition (IC50) on P2X purinoceptor 7 [2] was 63.1 nM.

Regarding `C[C@@H]1CN(CC(=O)Nc2cccc3ncccc23)CCN1S(=O)(=O)c1ccc(S(C)(=O)=O)cc1`, on P2X purinoceptor 7 [4], the pIC50 result was “>= 5”.

Molecule `CCOC(=O)N[C@@H](Cc1ccc(OS(=O)(=O)c2cccc3cccnc23)cc1)C(=O)N1CCN(C(=O)OC(C)(C)C)CC1` registered an inhibition in assay [3] below 10%.

For `CN(CCO)CCc1cc(C(=O)NCC23CC4CC(CC(C4)C2)C3)c(Cl)cn1`, at P2X purinoceptor 7 [4], the half-inhibitory concentration (IC50) was 15.8 nM.

For the molecule `Fc1cccc(CSC2=N[C@@H](c3ccccc3)[C@@H](c3ccccc3)N2)c1`, on P2X purinoceptor 7 [1], the 50% inhibitory concentration (IC50) is 200 nM.

As to `CCC(=O)N1CCN(C(=O)[C@H](Cc2ccc(OS(=O)(=O)c3ccccc3)cc2)NC(=O)OCc2ccccc2)CC1`, the inhibition in assay [3] is below 10%.

With `CS(=O)(=O)NC(=O)NCCCc1ccc2c(C(=O)NCC3CCCCC3)c(Cl)ccc2n1`, the IC50 at P2X purinoceptor 7 [4] was 501 nM.

Molecule `Cc1ccc(S(=O)(=O)N[C@@H](Cc2ccc(OS(=O)(=O)c3cccc4cccnc34)cc2)C(=O)N2CCN(C(=O)OC(C)(C)C)CC2)cc1` yielded an inhibition in assay [3] of 32%.
